{"source": "patent US20150335596A1", "about": "“1-(2-FLUOROBIPHENYL-4-YL)-CYCLOPROPANECARBOXYLIC ACID DERIVATIVES FOR THE TREATMENT OF DOWN'S SYNDROME” (CHIESI FARMACEUTICI S.P.A., priority 2014, published 2015)", "format_in_all_cases": "in vivo, mouse", "key": {"[1]": {"system": "Ionized calcium binding adaptor molecule 1 (Iba1)", "test": "Activated microglia, Iba1 immunoreactivity in hippocampus", "conditions": "CA1/2 hippocampus, aged Ts65Dn mice, diet 375 ppm, vs Ts65Dn on standard diet", "protocol": "(§1) The study was performed on Ts65Dn male, using the administration of CHF 5074 in the diet (375 ppm, equivalent to approximately 60 mg/kg/day).\n(§2) The treatment started at 2 to 3 months of age and it was chronically administered in the diet for 15 months, until 19 months of age.\n(§3) Treatment groups were: • Wild-type mice receiving standard diet (N=20) • Wild-type mice receiving CHF 5074-medicated diet (375 ppm, approximately 60 mg/kg/day) (N=20) • Ts65Dn mice receiving standard diet (N=20) • Ts65Dn mice receiving CHF 5074-mediacted diet (375 ppm, approximately 60 mg/kg/day) (N=20)\n(§4) Brain morphology was assessed by immunohistochemistry, immunofluorescence and quantitative morphometry and microdensitometry according to Imbimbo B P et al., J Alzheimer Dis 2010; 20:159-173; Sivilia S et al., BMC Neurosci 2013; 14: 44; and Guidi S et al., Brain 2014; 137: 380-401, all of which are incorporated herein by reference in their entireties. The following proteins were investigated:\nIonized calcium binding adaptor molecule 1 (Iba1), as microglia marker in hippocampus;"}, "[2]": {"system": "total APP/Aβ40/Aβ42 peptides", "test": "Intraneuronal APP immunohistochemistry and microdensitometry in cerebral cortex", "conditions": "Ts65Dn mice treated vs control transgenic animals", "procedure": "Intraneuronal APP was measured by immunohistochemistry and computerized microdensitometry (Chemicon clone 22C11) in cerebral cortex;"}, "APP mRNA": {"system": "APP mRNA", "test": "APP mRNA expression by real-time PCR in hippocampus and basal ganglia", "conditions": "wild-type animals, medicated diet for 15 months", "procedure": "Molecular biology markers were measured in hippocampus and basal ganglia by real-time PCR, according to Massella A et al., BMC Neuroscience 2012; 13: 12; and D'Intino G et al., J Neuroendocrinol 2011; 23: 778-790, both of which are incorporated herein by reference in their entireties."}, "Aβ40 and Aβ42 [3]": {"system": "Aβ40 and Aβ42", "test": "Brain (cerebral cortex) Aβ40 and Aβ42 by ELISA", "conditions": "after 15 months of treatment (19 months of age)", "protocol": "as §1, §2, §3\n(§5) Aβ40 and Aβ42 were measured by ELISA in plasma and brain extracts (IBL kit for mouse Aβ40/Aβ42);\nFIGS. 7 A, B, C, and D illustrates the brain (cerebral cortex) levels of Aβ40 and Aβ42 in animals after 15 months of treatment (19 months of age). Results are expressed as pmol/gr proteins (panels A and B), and as fmol/g wet tissue (panels C and D). There was a substantial increase in Aβ40 and Aβ42 brain levels in Ts65Dn mice compared to wild-type animals."}, "Ts65Dn mice [4]": {"system": "Ts65Dn mice", "test": "Y-maze test, spatial learning and memory", "protocol": "as §1, §2, §3\n(§6) Animals were provided by Jackson Laboratory, Bar Harbor, Me., USA) in small cohorts. Ts65Dn segmental male trisomic mice were used. Ts65Dn mice were compared with diploid controls from the same litters.\nSpatial learning and memory were assessed with the Y-maze test according to Stewart S et al., J Alzheimer Dis 2011; 26: 105-126, which is incorporated herein by reference in its entirety.\nAnimals were tested in a single trial Y maze task, to measure arm entries (A) and alternation (B). The percentage of spontaneous alternations is defined as (total alternations/total arm entries-2)×100."}, "[5]": {"system": "Vesicular GABA transporter (VGAT)", "test": "VGAT immunostaining in hippocampus", "conditions": "CA1/2 hippocampus, Ts65Dn mice, after 15 months of treatment", "protocol": "as §1, §2, §3, §4\nVesicular GABA transporter (VGAT), as marker of GABAergic synapses in hippocampus;\n(§7) FIG. 10 illustrates main markers of synaptic transmission in the CA1/2 regions of the hippocampus after 15 months of treatment (19 months of age). […] Panel B reports the variation of immunostaining for the glutamate transporter VGLUT1 with a substantial decrease in Ts65Dn mice compared to wild-type animals. […]"}, "Ts65Dn mice [6]": {"system": "Ts65Dn mice", "test": "CatWalk computerized gait analysis, locomotion", "protocol": "as §1, §2, §3, §6\nLocomotion deficits were assessed with the CatWalk technology (gait analysis) according to Faizi M et al., Neurobiol Dis 2011; 43: 397-413, which is incorporated herein by reference in its entirety.\nThe print area of front and hind paws is presented, as corrected according to the individual animal body weight. […] CHF 5074 treatment normalized this gait parameter."}, "Synaptophysin": {"system": "Synaptophysin", "test": "Synaptophysin immunostaining in hippocampus", "conditions": "CA1/2 hippocampus, after 15 months of treatment, between experimental groups", "protocol": "as §1, §2, §3, §4\nSynaptophysin. It is a pre-synaptic vesicle membrane protein known to mediate vesicle release in hippocampus;\nas §7"}, "[7]": {"system": "Amyloid precursor protein intracellular domain (AICD)", "test": "AICD immunoreactivity in CA1/2 hippocampal neurons", "conditions": "CA1/2 hippocampal regions, Ts65Dn mice, p<0.0001", "procedure": "Amyloid precursor protein intracellular domain (AICD) (cleavage sites C83 and C99) in hippocampus.\nQuantification was carried out by counting the percentage of neurons having AICD-positivity."}, "Aβ40 and Aβ42 [8]": {"system": "Aβ40 and Aβ42", "test": "Plasma Aβ40 and Aβ42 by ELISA", "protocol": "as §1, §2, §3, §5\nFIGS. 6 A and B illustrates the plasma levels of Aβ40 and Aβ42 peptides in animals after 15 months of treatment (19 months of age). There was a substantial increase in Aβ40 and Aβ42 plasma levels in Ts65Dn mice compared to wild-type animals."}, "[9]": {"system": "Glial fibrillary acidic protein (GFAP)", "test": "Reactive astrocytes, GFAP immunoreactivity in hippocampus", "conditions": "CA1/2 hippocampus, aged Ts65Dn mice, diet 375 ppm, vs Ts65Dn on standard diet", "protocol": "as §1, §2, §3, §4\nGlial fibrillary acidic protein (GFAP) as astrocyte marker in hippocampus;"}, "[10]": {"conditions": "wild-type and Ts65Dn mice, after 15 months of treatment (19 months of age)"}}, "data": [{"molecule": "O=C(O)C1(c2ccc(-c3ccc(Cl)c(Cl)c3)c(F)c2)CC1", "note": "[CHF 5074, 1-(3′,4′-dichloro-2-fluorobiphenyl-4-yl)cyclopropanecarboxylic acid]", "values": [{"measurement": "Iba1-immunoreactivity (activated microglia)", "setting": "[1]", "result": "substantial reduction"}, {"measurement": "intracellular immunoreactivity of total APP/Aβ40/Aβ42 peptides in cortical neurons", "setting": "[2]", "result": "significant decrease"}, {"measurement": "APP mRNA levels", "setting": "APP mRNA", "result": "slightly but significantly increased"}, {"measurement": "brain Aβ40 levels", "setting": "Aβ40 and Aβ42 [3]", "result": "did not modify significantly"}, {"measurement": "brain Aβ42 levels", "setting": "Aβ40 and Aβ42 [3]", "result": "did not modify significantly"}, {"measurement": "spontaneous alternation in Y maze (spatial memory)", "setting": "Ts65Dn mice [4]; CHF 5074 in diet 375 ppm (approx. 60 mg/kg/day), tested after 6, 9 and 15 months of treatment", "result": "progressively normalized"}, {"measurement": "spontaneous alternation in Y maze compared to wild-type mice", "setting": "Ts65Dn mice [4]; diet 375 ppm, after 15 months of treatment", "result": "not significantly different"}, {"measurement": "spatial memory deficit (study summary)", "setting": "Ts65Dn mice [4]; prolonged oral treatment", "result": "attenuated"}, {"measurement": "increase of immunostaining for the GABA transporter VGAT", "setting": "[5]", "result": "completely reversed"}, {"measurement": "hind paw print area (gait parameter, corrected for body weight)", "setting": "Ts65Dn mice [6]; diet 375 ppm, after 15 months of treatment (19 months of age)", "result": "normalized"}, {"measurement": "locomotion deficit (study summary)", "setting": "Ts65Dn mice [6]; prolonged oral treatment", "result": "completely reversed"}, {"measurement": "synaptophysin levels", "setting": "Synaptophysin", "result": "no significant differences"}, {"measurement": "increase in percentage of AICD-positive neurons", "setting": "[7]", "result": "significantly attenuated"}, {"measurement": "plasma level of Aβ40", "setting": "Aβ40 and Aβ42 [8]; [10]", "result": "further increased"}, {"measurement": "plasma level of Aβ42", "setting": "Aβ40 and Aβ42 [8]; [10]", "result": "further increased"}, {"measurement": "significance of the increase in plasma Aβ42", "setting": "Aβ40 and Aβ42 [8]; wild-type animals, after 15 months of treatment", "result": "significant"}, {"measurement": "GFAP-immunoreactivity (reactive astrocytes)", "setting": "[9]", "result": "substantial reduction"}]}]}
